In US7691416B2, “Methods of treating vascular disease” (priority 2002, dated 2010):
Entries after “also recorded” stand apart in the source; their conditions may differ.

Key:
[1] = test system: PAI-1; assay: PAI-1 protein in transplanted aortas (immunohistology and Western blot); assay type: in vivo, rat; details: 56 days after transplantation
From the text: (§1) Animals. Male (250-350 g) Brown Norway rats (RT1^n) were used as aortic graft donors and male (250-350 g) Lewis rats (RT11) as recipients. Dawley (400-450 g) rats were used in the balloon injury model. Adult male C57BL/6, C57/S129, p21^−/− and p53^−/− null mice were purchased from Jackson Laboratory (Bar Harbor, Me.). mkk3^(−/−) null mice were generated as described Lu et al. (EMBO. 18:1845-1857 (1999)). The inos^−/− and enos^−/− mice were bred at the University of Pittsburgh. Aortic transplant model. Aortic transplantation was performed as described in Shimizu et al. (Nat. Med. 7:738-741 (2001)). Briefly, 3 to 4 cm of descending aorta was harvested from the donor and implanted between the renal arteries and the aortic bifurcation of the recipient. Both edges of the native abdominal aorta were ligated. Balloon injury model. Balloon angioplasty was carried out as described in Murakami et al. (Atherosclerosis 157:361-368 (2001)). […] [^3H]thymidine incorporation was measured by scintillation spectroscopy and presented as mean counts/min/well. […] Areas from eight to ten captured images were calculated using digital imaging software as number of pixels corresponding to those areas. Twenty-four to forty-eight sections from each group were statistically analyzed with SPSS software version 10. […]

[2] = test system: PAI-1; assay: Western blot of PAI-1 in SMC; assay type: cell-based; details: CO 250 ppm, 24 or 48 hours
From the text: as §1

[3] = test system: iNOS and eNOS; assay: Western blot of NOS isoforms in SMC; assay type: cell-based, mouse; details: CO 250 or 10,000 ppm, varying amounts of time
From the text: as §1

[4] = test system: ERK-1 and -2; assay: Western blot of phosphorylated ERK in SMC; assay type: cell-based; details: SMC exposed to CO (250 ppm)
From the text: as §1

[5] = test system: ATF-2; assay: Western blot of phosphorylated ATF-2 in SMC; assay type: cell-based; details: SMC exposed to CO (250 ppm)
From the text: as §1

[6] = test system: JNK-1 and -2; assay: Western blot of phosphorylated JNK in SMC; assay type: cell-based; details: SMC exposed to CO (250 ppm)
From the text: as §1

[7] = test system: cGMP; assay: cGMP immunoassay (EIA) of SMC lysates; assay type: cell-based, mouse; details: CO 250 ppm for 8 h or 16 h
From the text: as §1

For `[C-]#[O+]` [CO, carbon monoxide], the “PAI-1 protein expression versus allogeneic aortas transplanted in the absence of CO” value [1] was “similar; also recorded: No decrease”, the PAI-1 protein [2] was “slightly increased” and the “Induction of NOS isoforms” value [3] was “no induction”. The “Activation of ERK-1 and -2” value [4] was “did not modulate”, the ATF-2 activation [5] was “activation” and the “Activation of JNK-1 and -2” value [6] was “induced activation”. For the same compound, the “Intracellular cGMP levels” value [7] was “increased”.
